In PubChem BioAssay AID256 (DTP/NCI, 2004) one finds T/C data, which are given here for three compounds.

Inconclusive results and toxic doses are left out.

The assay relates to CD2F1 mice, L1210 leukemia ip, survival T/C. Put plainly: NCI In Vivo Anticancer Drug Screen. Data for tumor model L1210 Leukemia (intraperitoneal) in CD2F1 (CDF1) mice. Conditions: endpoint: mean survival time, higher = longer survival. The procedure, abridged: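 Tumor-bearing mice (transplanted tumor) were split into treated and vehicle control groups, and the measured endpoint of each treated group was divided by that of its vehicle controls.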

As for `O=S(=O)(/C=C(/Br)c1ccccc1)c1ccccc1`, the T/C runs as follows: (dose: 100.0 mg/kg/injection, schedule: Q01DX009 (ip), vehicle: saline) 96 % of control; (dose: 100.0 mg/kg/injection, schedule: Q04DX003 (ip), vehicle: saline) 100 % of control; (dose: 200.0 mg/kg/injection, schedule: Q01DX009 (ip), vehicle: saline) 91 % of control; (dose: 200.0 mg/kg/injection, schedule: Q04DX003 (ip), vehicle: saline) 100 % of control; (dose: 400.0 mg/kg/injection, schedule: Q01DX009 (ip), vehicle: saline) 90 % of control; (dose: 400.0 mg/kg/injection, schedule: Q04DX003 (ip), vehicle: saline) 100 % of control.

As to `CN(C)c1nc(N)nc(-c2cc[n+]([O-])cc2)n1`, the T/C by setting is: (dose: 100.0 mg/kg/injection, schedule: Q04DX002 (ip), vehicle: saline) 103 % of control; (dose: 200.0 mg/kg/injection, schedule: Q04DX002 (ip), vehicle: saline) 88 % of control.

Take `Cc1ccc(N=NN(C)C)cc1`: the T/C is, setting by setting: (dose: 18.75 mg/kg/injection, schedule: Q01DX009 (ip), vehicle: Klucel (hydroxypropylcellulose) (HPC)) 118 % of control; (dose: 75.0 mg/kg/injection, schedule: Q01DX009 (ip), vehicle: Klucel (hydroxypropylcellulose) (HPC)) 152 % of control.
